{"source": "patent US20060216333A1", "about": "“Methods related to the treatment of mucosal associated conditions” (priority 2003, published 2006)", "assay_type_in_all_cases": "in vivo, rat", "key": {"TNF": {"test_system": "TNF", "assay": "Serum and vaginal tissue TNF after intravaginal dosing of rats (ELISA)", "settings": "for TNF Tissue: vaginal tissue, per 200 mg", "description": "(§1) In the examples below the serum and intravaginal cytokine data were obtained using the following general test method.\n(§2) Rats were acclimated to collars (Lomir Biomedical, Malone, N.Y.) around the neck on two consecutive days prior to actual dosing. Rats were collared to prevent removal of the device and ingestion of the drug. Animals were then dosed intravaginally with a removable device or with […] of cream. Single dosed rats received one intravaginal dose with samples collected at various times following dosing. Blood was collected by cardiac puncture. Blood was allowed to clot briefly at room temperature and serum was separated from the clot via centrifugation. The serum was stored at −20° C. until it was analyzed for cytokine concentrations.\n(§3) Following blood collection, the rats were euthanized and their vaginal tract, including the cervix, was then removed and the tissue was weighed, placed in a sealed 1.8 mL cryovial and flash frozen in liquid nitrogen. The frozen vaginal tissue sample was then suspended in 1.0 mL of RPMI medium (Celox, St. Paul, Minn.) containing 10% fetal bovine serum (Atlas, Fort Collins, Colo.), 2 mM L-glutamine, penicillin/streptomycin and 2-mercaptoethanol (RPMI complete) combined with a protease inhibitor cocktail set III (Calbiochem, San Diego, Calif.). The tissue was homogenized using a Tissue Tearor (Biospec Products, Bartlesville, Okla.) for approximately one minute. The tissue suspension was then centrifuged at 2000 rpm for 10 minutes under refrigeration to pellet the debris, and the supernatant collected and stored at −20° C. until analyzed for cytokine concentrations.\n(§4) ELISA kits for rat TNF were purchased from BD PharMingen (San Diego, Calif.) and the rat MCP-1 ELISA kits were purchased from BioSource Intl. (Camarillo, Calif.).\n(§5) Both kits were performed according to manufacturer's specifications. Results for both TNF and MCP-1 are expressed in pg/mL and are normalized per 200 mg of tissue. […] “Post dosing” means after treatment initiation. For example, if a device was inserted a time 0 hours and removed at 2 hours and cytokines were assayed at 4 hours, then the cytokines were assayed at 4 hours post dosing."}, "MCP-1": {"test_system": "MCP-1", "assay": "Serum and vaginal tissue MCP-1 after intravaginal dosing of rats (ELISA)", "settings": "for MCP-1 Tissue: vaginal tissue, per 200 mg", "description": "as §1, §2, §3, §4, §5"}, "rats [1]": {"test_system": "rats", "assay": "Histologic examination of vaginas and vulvas, Example 9", "settings": "removed after 2 hours, necropsied 22 hours after removal; for Vagina Erosion or ulceration / Vulva Erosion or ulceration: incidence; for Vagina Inflammation / Vulva Inflammation: mean score, 0=none to 4=severe", "description": "Devices were prepared from either cotton as described in Example 1 or from polyurethane foam (Medisorb 100—1.25:Polysorbate 60 at 1% concentration at 1.25/1 ratio, from Lendell Manufacturing, Inc, St. Charles, Mich.). The devices were saturated with one of the following solutions: 0.1% ERM 3 in 50/50 ISA/IPM; 1.0% IRM 3 in 50/50 ISA/IPM; 3.0% IRM 3 in 50/50 ISA/IPM or with 50/50 ISA/IPM (vehicle). Rats were dosed intravaginally; the devices were removed after 2 hours. […] Cytokines were assayed at 4 hours post dosing. The results are shown in the table below where each value is the mean of the values for 3 rats.\n(§6) Groups of 3 rats were treated as described in Example 5 and necropsied 22 hours after the devices were removed. Vaginas and vulvas were collected, fixed and processed routinely for histologic examination. Inflammation was scored as follows: 0=none, 1=minimal, 2=mild, 3=moderate, 4=severe. The values in the tables are the mean of the scores for 3 rats."}, "rats [2]": {"test_system": "rats", "assay": "Histologic examination of vaginas and vulvas, Example 10", "settings": "necropsied 24 hours after treatment initiation", "description": "as §6\nCotton devices were prepared as described in Example 1. The devices were saturated with a solution containing 5% by weight of IRM 3 in 50/50 w/w isostearic acid/isopropyl myristate. One group of 5 rats was dosed intravaginally with the devices. The devices were removed after 2 hours. A second group of 5 rats was dosed intravaginally with 5% IRM 3 cream. The cream was washed out after 2 hours. A third group of 5 rats was dosed intravaginally with 5% IRM 3 cream but the cream was not removed. The rats were necropsied 24 hours after treatment initiation. Vaginas and vulvas were collected, fixed and processed routinely for histologic examination. The scoring system described in Example 9 was used."}, "[3]": {"settings": "2 hr post dose, 5% in 50/50 ISA/IPM, cotton pellet device removed after 2 hours, Example 7"}, "[4]": {"settings": "4 hours post dosing, 0.1% in 50/50 ISA/IPM, cotton device removed after 2 hours, Example 5"}, "[5]": {"settings": "4 hours post dosing, 0.1% in 50/50 ISA/IPM, foam device removed after 2 hours, Example 5"}, "[6]": {"settings": "4 hours post dosing, 1.0% in 50/50 ISA/IPM, cotton device removed after 2 hours, Example 5"}, "[7]": {"settings": "4 hours post dosing, 1.0% in 50/50 ISA/IPM, foam device removed after 2 hours, Example 5"}, "[8]": {"settings": "4 hours post dosing, 3.0% in 50/50 ISA/IPM, cotton device removed after 2 hours, Example 5"}, "[9]": {"settings": "4 hours post dosing, 3.0% in 50/50 ISA/IPM, foam device removed after 2 hours, Example 5"}, "[10]": {"settings": "4 hr post dose, 5% in 50/50 ISA/IPM, cotton pellet device removed after 2 hours, Example 7"}, "[11]": {"settings": "6 hr post dose, 5% in 50/50 ISA/IPM, cotton pellet device removed after 2 hours, Example 7"}, "[12]": {"settings": "incidence, cotton device 5% removed after 2 hours"}}, "note": "Marks after values point to notes of the source that are not given here.", "data": [{"smiles": "CC(C)Cn1cnc2c(N)nc3cccnc3c21", "note": "[IRM 3, 1-(2-methylpropyl)-1H-imidazo[4,5-c][1,5]naphthyridin-4-amine]", "values": [{"measurement": "TNF Serum", "setting": "TNF; [3]", "value": 4, "unit": "pg/mL"}, {"measurement": "TNF Serum", "setting": "TNF; [4]", "value": 0, "unit": "pg/mL"}, {"measurement": "TNF Serum", "setting": "TNF; [5]", "value": 0, "unit": "pg/mL"}, {"measurement": "TNF Serum", "setting": "TNF; [6]", "value": 0, "unit": "pg/mL"}, {"measurement": "TNF Serum", "setting": "TNF; [7]", "value": 0, "unit": "pg/mL"}, {"measurement": "TNF Serum", "setting": "TNF; [8]", "value": 0, "unit": "pg/mL"}, {"measurement": "TNF Serum", "setting": "TNF; [9]", "value": 0, "unit": "pg/mL"}, {"measurement": "TNF Serum", "setting": "TNF; [10]", "value": 3, "unit": "pg/mL"}, {"measurement": "TNF Serum", "setting": "TNF; [11]", "value": 5, "unit": "pg/mL"}, {"measurement": "TNF Tissue", "setting": "TNF; [3]", "value": 809, "unit": "pg/mL"}, {"measurement": "TNF Tissue", "setting": "TNF; [4]", "value": 108, "unit": "pg/mL"}, {"measurement": "TNF Tissue", "setting": "TNF; [5]", "value": 85, "unit": "pg/mL"}, {"measurement": "TNF Tissue", "setting": "TNF; [6]", "value": 173, "unit": "pg/mL"}, {"measurement": "TNF Tissue", "setting": "TNF; [7]", "value": 148, "unit": "pg/mL"}, {"measurement": "TNF Tissue", "setting": "TNF; [8]", "value": 175, "unit": "pg/mL"}, {"measurement": "TNF Tissue", "setting": "TNF; [9]", "value": 302, "unit": "pg/mL"}, {"measurement": "TNF Tissue", "setting": "TNF; [10]", "value": 608, "unit": "pg/mL"}, {"measurement": "TNF Tissue", "setting": "TNF; [11]", "value": 114, "unit": "pg/mL"}, {"measurement": "MCP-1 Serum", "setting": "MCP-1; [3]", "value": 95, "unit": "pg/mL"}, {"measurement": "MCP-1 Serum", "setting": "MCP-1; [4]", "value": 72, "unit": "pg/mL"}, {"measurement": "MCP-1 Serum", "setting": "MCP-1; [5]", "value": 77, "unit": "pg/mL"}, {"measurement": "MCP-1 Serum", "setting": "MCP-1; [6]", "value": 111, "unit": "pg/mL"}, {"measurement": "MCP-1 Serum", "setting": "MCP-1; [7]", "value": 86, "unit": "pg/mL"}, {"measurement": "MCP-1 Serum", "setting": "MCP-1; [8]", "value": 79, "unit": "pg/mL"}, {"measurement": "MCP-1 Serum", "setting": "MCP-1; [9]", "value": 105, "unit": "pg/mL"}, {"measurement": "MCP-1 Serum", "setting": "MCP-1; [10]", "value": 114, "unit": "pg/mL"}, {"measurement": "MCP-1 Serum", "setting": "MCP-1; [11]", "value": 171, "unit": "pg/mL"}, {"measurement": "MCP-1 Tissue", "setting": "MCP-1; [3]", "value": 815, "unit": "pg/mL"}, {"measurement": "MCP-1 Tissue", "setting": "MCP-1; [4]", "value": 179, "unit": "pg/mL"}, {"measurement": "MCP-1 Tissue", "setting": "MCP-1; [5]", "value": 143, "unit": "pg/mL"}, {"measurement": "MCP-1 Tissue", "setting": "MCP-1; [6]", "value": 468, "unit": "pg/mL"}, {"measurement": "MCP-1 Tissue", "setting": "MCP-1; [7]", "value": 279, "unit": "pg/mL"}, {"measurement": "MCP-1 Tissue", "setting": "MCP-1; [8]", "value": 402, "unit": "pg/mL"}, {"measurement": "MCP-1 Tissue", "setting": "MCP-1; [9]", "value": 351, "unit": "pg/mL"}, {"measurement": "MCP-1 Tissue", "setting": "MCP-1; [10]", "value": 1260, "unit": "pg/mL"}, {"measurement": "MCP-1 Tissue", "setting": "MCP-1; [11]", "value": 840, "unit": "pg/mL"}, {"measurement": "Vagina Erosion or ulceration", "setting": "rats [1]; cotton device 0.1%", "value": "0/3"}, {"measurement": "Vulva Erosion or ulceration", "setting": "rats [1]; cotton device 0.1%", "value": "0/3"}, {"measurement": "Vagina Erosion or ulceration", "setting": "rats [1]; cotton device 1.0%", "value": "0/3"}, {"measurement": "Vulva Erosion or ulceration", "setting": "rats [1]; cotton device 1.0%, tissue from 1 rat not assessable", "value": "0/2*"}, {"measurement": "Vagina Erosion or ulceration", "setting": "rats [1]; cotton device 3.0%", "value": "0/3"}, {"measurement": "Vulva Erosion or ulceration", "setting": "rats [1]; cotton device 3.0%", "value": "0/3"}, {"measurement": "Vagina Erosion or ulceration", "setting": "rats [1]; foam device 0.1%", "value": "0/3"}, {"measurement": "Vulva Erosion or ulceration", "setting": "rats [1]; foam device 0.1%", "value": "0/3"}, {"measurement": "Vagina Erosion or ulceration", "setting": "rats [1]; foam device 1.0%", "value": "0/3"}, {"measurement": "Vulva Erosion or ulceration", "setting": "rats [1]; foam device 1.0%", "value": "0/3"}, {"measurement": "Vagina Erosion or ulceration", "setting": "rats [1]; foam device 3.0%", "value": "0/3"}, {"measurement": "Vulva Erosion or ulceration", "setting": "rats [1]; foam device 3.0%, tissue from 1 rat not assessable", "value": "0/2*"}, {"measurement": "Vagina Inflammation", "setting": "rats [1]; cotton device 0.1% in 50/50 ISA/IPM", "value": 1.0}, {"measurement": "Vulva Inflammation", "setting": "rats [1]; cotton device 0.1%", "value": 0.33}, {"measurement": "Vagina Inflammation", "setting": "rats [1]; cotton device 1.0% in 50/50 ISA/IPM", "value": 2.5}, {"measurement": "Vulva Inflammation", "setting": "rats [1]; cotton device 1.0%", "value": 0.5}, {"measurement": "Vagina Inflammation", "setting": "rats [1]; cotton device 3.0% in 50/50 ISA/IPM", "value": 3.17}, {"measurement": "Vulva Inflammation", "setting": "rats [1]; cotton device 3.0%", "value": 2.17}, {"measurement": "Vagina Inflammation", "setting": "rats [1]; foam device 0.1% in 50/50 ISA/IPM", "value": 2.17}, {"measurement": "Vulva Inflammation", "setting": "rats [1]; foam device 0.1%", "value": 0.33}, {"measurement": "Vagina Inflammation", "setting": "rats [1]; foam device 1.0% in 50/50 ISA/IPM", "value": 2.83}, {"measurement": "Vulva Inflammation", "setting": "rats [1]; foam device 1.0%", "value": 0.33}, {"measurement": "Vagina Inflammation", "setting": "rats [1]; foam device 3.0% in 50/50 ISA/IPM", "value": 2.5}, {"measurement": "Vulva Inflammation", "setting": "rats [1]; foam device 3.0%", "value": 1.75}, {"measurement": "Vagina - erosion", "setting": "rats [2]; [12]", "value": "0/5"}, {"measurement": "Vagina - ulceration", "setting": "rats [2]; [12]", "value": "0/5"}, {"measurement": "Vulva - preulcer", "setting": "rats [2]; [12]", "value": "3/5"}, {"measurement": "Vulva - ulceration", "setting": "rats [2]; [12]", "value": "0/5"}, {"measurement": "Vagina - Inflammation", "setting": "rats [2]; mean score, 0=none to 4=severe, cotton device 5% in 50/50 ISA/IPM removed after 2 hours", "value": 3.1}, {"measurement": "Vulva - Inflammation", "setting": "rats [2]; mean score, 0=none to 4=severe, cotton device 5% removed after 2 hours", "value": 1.7}]}]}
